Source: ChEMBL document CHEMBL1614632, “Trend analysis of a database of intravenous pharmacokinetic parameters in humans for 670 drug compounds” (Drug Metab Dispos, 2008)
Numbered stars: 1 amine (or outer) side, 2 acyl side, 3 side chain; on linkers, the order of the positions; unused ones are H or OH. Bridge positions count the residues as written; N and C are the ends. Square brackets hold non-standard residues; d marks the D form. Peptide text beside a SMILES is read from it. * marks the point of attachment. X2 = O=C1C[C@@H](C(=O)[*:2])N([*:1])C[C@H]1CS[C@@H]1CN2CCC1CC2; NMePhe(4-NMe2) = CN[C@@H](Cc1ccc(N(C)C)cc1)C(=O)O; Picolinoyl(3-OH) = O=C(c1ncccc1O)*; hArg = N=C(N)NCCCC[C@H](N)C(=O)O; Phg = N[C@H](C(=O)O)c1ccccc1; dAbu = CC[C@@H](N)C(=O)O; Mpa = O=C(O)CCS

Experiments:
[1] = clinical; details: human, in vivo, iv, CL
[2] = clinical; details: human, in vivo, iv, t1/2
[3] = clinical; details: human, in vivo, iv
[4] = clinical; details: human, in vivo, iv; remark: listed apart in the source
[5] = clinical; details: human, in vivo, iv, Vdss

| Structure (SMILES) | clearance [1] [mL/min/kg] | half-life [2] [h] | MRT [3] [h] | fraction unbound [4] | Vd [5] [L/kg] |
| --- | --- | --- | --- | --- | --- |
| O=C1c2cccc3c2[C@H](CCC3)CN1[C@@H]1CN2CCC1CC2 [PALONOSETRON] | 2.6 | 39 | 40 | 0.38 | 6.3 |
| CCCC(C)C1(CC)C(=O)NC(=S)NC1=O (stereo not given) [THIOPENTAL] | 8.2 | 2 | 2.4 | 0.14 | 1.2 |
| CCc1nc(N)nc(N)c1-c1ccc(Cl)cc1 [PYRIMETHAMINE] | 0.052 | 140 | 140 | 0.095 | 0.43 |
| NNc1nncc2ccccc12 [HYDRALAZINE] | 85 | 0.96 | 0.29 | 0.12 | 1.5 |
| CC1(C)S[C@@H]2[C@H](NC(=O)C(c3ccccc3)S(=O)(=O)O)C(=O)N2[C@H]1C(=O)O (stereo not given in full) [SULBENICILLIN] | 1.6 | 1.2 | 1.6 | 0.5 | 0.15 |
| COc1ccc2c(c1)c(CC(=O)O)c(C)n2C(=O)c1ccc(Cl)cc1 [INDOMETHACIN] | 1.3 | 1.4 | 1.2 | 0.01 | 0.096 |
| CC(=O)O[C@H]1C[C@@H]2CC[C@@H]3[C@H](CC[C@@]4(C)[C@H]3C[C@H]([N+]3(C)CCCCC3)[C@@H]4OC(C)=O)[C@@]2(C)C[C@@H]1N1CCCCC1.[Br-] [VECURONIUM BROMIDE] | 4.5 | 1.4 | 1.1 | 0.25 | 0.3 |
| CC(C)c1cccc(C(C)C)c1O [PROPOFOL] | 36 | 3.2 | 2.2 | 0.016 | 4.7 |
| CC(=O)Nc1c(I)c(C(=O)O)c(I)c(N(C)C(C)=O)c1I [METRIZOIC ACID] | 2.7 | 1.3 | 1 | 1 | 0.17 |
| CC[C@H]1OC(=O)[C@H](C)C(=O)[C@H](C)[C@@H](O[C@@H]2O[C@H](C)C[C@H](N(C)C)[C@H]2O)[C@](C)(OC)C[C@@H](C)C(=O)[C@H](C)[C@H]2N(CCCCn3cnc(-c4cccnc4)c3)C(=O)O[C@]12C [TELITHROMYCIN] | 14 | 12 | 3.6 | 0.41 | 3 |
| CCCCC1=NC2(CCCC2)C(=O)N1Cc1ccc(-c2ccccc2-c2nnn[nH]2)cc1 [IRBESARTAN] | 2.3 | 14 | 6.8 | 0.1 | 0.94 |
| CC(=O)OCC1=C(C(=O)O)N2C(=O)[C@@H](NC(=O)CSc3ccncc3)[C@H]2SC1 [CEPHAPIRIN] | 2.7 | 1.2 | 0.8 | 0.55 | 0.13 |
| CCN(C)C(=O)Oc1cccc([C@H](C)N(C)C)c1 [RIVASTIGMINE] | 12 | 1.4 | 1.9 | 0.6 | 1.3 |
| N=C(N)NCCCC[C@@H]1NC(=O)CCSSC[C@@H](C(N)=O)NC(=O)[C@@H]2CCCN2C(=O)[C@H](Cc2c[nH]c3ccccc23)NC(=O)[C@H](CC(=O)O)NC(=O)CNC1=O [EPTIFIBATIDE] ([Mpa][hArg]GDWPC-NH2; disulfide 1-7) | 1.2 | 4.2 | 2.4 | 0.75 | 0.17 |
| Cc1ncsc1CCCl [CLOMETHIAZOLE] | 33 | 4.5 | 3.3 | 0.36 | 6.6 |
| Cc1cccc(C)c1NC(=O)C1CCCCN1C (stereo not given) [MEPIVACAINE] | 6.8 | 2 | 2.5 | 0.3 | 0.95 |

| Structure (SMILES) | clearance [1] [mL/min/kg] | half-life [2] [h] | MRT [3] [h] | fraction unbound [4] | Vd [5] [L/kg] |
| --- | --- | --- | --- | --- | --- |
| COc1ccc(Cl)cc1[C@]1(F)C(=O)Nc2cc(C(F)(F)F)ccc21 [FLINDOKALNER] | 15 | 37 | 11 | 0.0038 | 10 |
| CCC1(c2cccc(O)c2)CCCCN(C)C1 (stereo not given) [MEPTAZINOL] | 28 | 1.7 | 2 | 0.73 | 3.3 |
| CC(=O)O[C@H]1C(=O)[C@@]2(C)[C@H]([C@H](OC(=O)c3ccccc3)[C@]3(O)C[C@H](OC(=O)[C@H](O)[C@@H](NC(=O)c4ccccc4)c4ccccc4)C(C)=C1C3(C)C)[C@]1(OC(C)=O)CO[C@@H]1C[C@@H]2O [PACLITAXEL] | 6.4 | 11 | 7.8 | 0.12 | 3 |
| O=C(O)c1cc(-c2ccc(F)cc2F)ccc1O [DIFLUNISAL] | 0.1 | 10 | 14 | 0.0016 | 0.097 |
| COC(=O)C1=C(C)NC(C)=C(C(=O)OC(C)C)C1c1cccc2nonc12 (stereo not given) [ISRADIPINE] | 26 | 3.3 | 1 | 0.04 | 1.5 |
| CO/N=C(\C(=O)N[C@@H]1C(=O)N2C(C(=O)O)=C(C)CS[C@H]12)c1csc(N)n1 | 1.9 | 2.1 | 2.5 | 0.78 | 0.28 |
| CC(=O)N[C@@H](CS)C(=O)O [ACETYLCYSTEINE] | 3.1 | 5.5 | 3 | 0.17 | 0.55 |
| CCOC(=O)C1=C(C)NC(C)=C(C(=O)OC)C1c1cccc([N+](=O)[O-])c1 (stereo not given) [NITRENDIPINE] | 25 | 8.2 | 4.1 | 0.02 | 6.1 |
| Fc1ccc([C@@H]2CCNC[C@H]2COc2ccc3c(c2)OCO3)cc1 [PAROXETINE] | 18 | 13 | 17 | 0.06 | 18 |
| COc1cc(NCc2ccc3nc(N)nc(N)c3c2C)cc(OC)c1OC [TRIMETREXATE] | 0.77 | 17 | 17 | 0.05 | 0.77 |
| COc1cc2c3cc1Oc1cc(ccc1O)C[C@@H]1c4c(cc(OC)c(O)c4Oc4ccc(cc4)C[C@@H]3N(C)CC2)CC[N+]1(C)C.[Cl-] | 3.4 | 2 | 2.2 | 0.58 | 0.45 |
| COc1ccc(CC2c3cc(OC)c(OC)cc3CC[N+]2(C)CCC(=O)OCCCCCOC(=O)CC[N+]2(C)CCc3cc(OC)c(OC)cc3C2Cc2ccc(OC)c(OC)c2)cc1OC (stereo not given) | 5.7 | 0.31 | 0.29 | 0.52 | 0.1 |
| CC[C@H]1NC(=O)[C@@H](NC(=O)c2ncccc2O)[C@@H](C)OC(=O)[C@H](c2ccccc2)NC(=O)[C@@H]2CC(=O)[C@H](CS[C@@H]3CN4CCC3CC4)CN2C(=O)[C@H](Cc2ccc(N(C)C)cc2)N(C)C(=O)[C@@H]2CCCN2C1=O [QUINUPRISTIN] ({Picolinoyl(3-OH)}-T[dAbu]P[NMePhe(4-NMe2)][X2][Phg]; ester 1-C) | 16 | 0.87 | 0.7 | 0.34 | 0.67 |
| CC(C)N(CCC(C(N)=O)(c1ccccc1)c1ccccn1)C(C)C (stereo not given) [DISOPYRAMIDE] | 0.9 | 7 | 9.6 | 0.16 | 0.52 |
| COc1cccc(OC)c1C(=O)N[C@@H]1C(=O)N2[C@@H]1SC(C)(C)[C@@H]2C(=O)O [METHICILLIN] | 6.6 | 0.64 | 0.8 | 0.43 | 0.32 |
| CC1(C)C[C@@H]1C(=O)N/C(=C\CCCCSC[C@H](N)C(=O)O)C(=O)O [CILASTATIN] | 2.3 | 0.86 | 1.1 | 0.6 | 0.15 |
